Laboratory results published in US7709482B2, “Polycyclic heteroaryl substituted triazoles useful as Axl inhibitors” (Rigel Pharmaceuticals, Inc., priority 2006, dated 2010).
pIC50: −log10 of the molar value.

Molecular target: T1, Axl (Homo sapiens, UniProt P30530)
T1 construct: endogenous in cells; host or cells: HeLa cells
T1 sequence (P30530 26-894): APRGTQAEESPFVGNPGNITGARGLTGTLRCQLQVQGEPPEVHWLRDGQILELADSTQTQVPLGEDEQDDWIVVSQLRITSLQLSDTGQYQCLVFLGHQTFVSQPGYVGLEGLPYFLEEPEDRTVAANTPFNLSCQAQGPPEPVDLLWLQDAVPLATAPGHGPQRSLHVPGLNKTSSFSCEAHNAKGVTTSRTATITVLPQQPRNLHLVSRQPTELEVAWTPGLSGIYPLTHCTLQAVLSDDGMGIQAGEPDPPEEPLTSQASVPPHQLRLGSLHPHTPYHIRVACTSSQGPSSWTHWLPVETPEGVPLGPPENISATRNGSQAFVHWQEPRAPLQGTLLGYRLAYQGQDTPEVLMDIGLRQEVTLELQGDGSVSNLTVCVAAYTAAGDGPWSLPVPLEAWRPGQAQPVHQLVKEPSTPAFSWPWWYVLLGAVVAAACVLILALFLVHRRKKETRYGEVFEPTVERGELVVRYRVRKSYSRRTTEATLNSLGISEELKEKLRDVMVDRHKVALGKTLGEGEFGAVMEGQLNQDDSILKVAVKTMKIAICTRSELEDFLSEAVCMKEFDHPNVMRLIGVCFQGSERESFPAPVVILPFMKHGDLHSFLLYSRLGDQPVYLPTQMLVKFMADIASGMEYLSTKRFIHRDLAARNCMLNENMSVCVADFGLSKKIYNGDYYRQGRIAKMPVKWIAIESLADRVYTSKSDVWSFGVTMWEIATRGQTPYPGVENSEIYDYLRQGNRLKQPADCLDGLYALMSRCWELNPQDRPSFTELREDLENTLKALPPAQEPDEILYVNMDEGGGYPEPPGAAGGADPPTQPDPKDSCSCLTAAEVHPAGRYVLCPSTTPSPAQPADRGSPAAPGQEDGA
Test: Phospho-Akt In-Cell Western Assay (inhibition of Axl activity after Axl-antibody cross-linking)
Format: cell-based
Details: inhibition of Axl activity; Table 1, compounds of formula (Ia); read-out: IC50
Summary of the method: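 HeLa cells on poly-L-lysine, starved 24 h in 0.5% FCS DMEM with Axl/Fc 500 ng/mL, pre-treated with compound 1 h at 37 °C, then stimulated 5 min by anti-Axl/anti-mouse antibody cross-linking. Fixed cells probed for phospho-Akt with HRP secondary and chemiluminescent detection.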

Compound	pIC50
Nc1nc(Nc2cnc3c(c2)CC[C@H](N2CCCC2)CC3)nn1-c1cc2c(nn1)-c1ccccc1CCC2 [Compound 191, 1-(6,7-dihydro-5H-benzo[6,7]cyclohepta[1,2-c]pyridazin-3-yl)-N^3-((S)-7-(pyrrolidin-1-yl)-6,7,8,9-tetrahydro-5H-cyclohepta[b]pyridine-3-yl)-1H-1,2,4-triazole-3,5-diamine]	> 6.00
Nc1nc(Nc2ccc(N3CCN(C4CCCCC4)CC3)c(F)c2)nn1-c1cc(-c2ccccc2)c2c(n1)-c1ccccc1CCC2 [Compound 192, 1-(4-phenyl-6,7-dihydro-5H-benzo[6,7]cyclohepta[1,2-b]pyridin-2-yl)-N^3-(3-fluoro-4-(4-cyclohexylpiperazin-1-yl)phenyl)-1H-1,2,4-triazole-3,5-diamine]	4.70 to 5.00
CN1CCN(c2ccc(Nc3nc(N)n(-c4cc(-c5ccccc5)c5c(n4)-c4ccccc4CCC5)n3)cc2)CC1 [Compound 193, 1-(4-phenyl-6,7-dihydro-5H-benzo[6,7]cyclohepta[1,2-b]pyridin-2-yl)-N^3-(4-(4-methylpiperazin-1-yl)phenyl)-1H-1,2,4-triazole-3,5-diamine]	5.00 to 6.00
COC(=O)[C@@H]1CCCN1C1CCc2ccc(Nc3nc(N)n(-c4cc5c(nn4)-c4ccccc4CCC5)n3)cc2CC1 (stereo partly drawn) [Compound 194, 1-(6,7-dihydro-5H-benzo[6,7]cyclohepta[1,2-c]pyridazin-3-yl)-N^3-((7-(2-(S)-methyloxycarbonyl)pyrrolidin-1-yl)-6,7,8,9-tetrahydro-5H-benzo[7]annulene-2-yl)-1H-1,2,4-triazole-3,5-diamine]	> 6.00
Nc1nc(Nc2ccc3c(c2)CCC(N2CCC[C@H]2C(=O)O)CC3)nn1-c1cc2c(nn1)-c1ccccc1CCC2 (stereo partly drawn) [Compound 195, 1-(6,7-dihydro-5H-benzo[6,7]cyclohepta[1,2-c]pyridazin-3-yl)-N^3-((7-(2-(S)-carboxy)pyrrolidin-1-yl)-6,7,8,9-tetrahydro-5H-benzo[7]annulene-2-yl)-1H-1,2,4-triazole-3,5-diamine]	5.00 to 6.00
CN1CCN(C2CCN(CC=Cc3ccc(Nc4nc(N)n(-c5cc6c(nn5)-c5ccccc5CCC6)n4)cc3)CC2)CC1 [Compound 196, 1-(6,7-dihydro-5H-benzo[6,7]cyclohepta[1,2-c]pyridazin-3-yl)-N^3-(4-(4-(4-methylpiperazin-1-yl)piperidin-1-ylprop-1-enyl)phenyl)-1H-1,2,4-triazole-3,5-diamine]	> 6.00
Nc1nc(Nc2ccc(C=CCN3CCC(N4CCCCC4)CC3)cc2)nn1-c1cc2c(nn1)-c1ccccc1CCC2 [Compound 197, 1-(6,7-dihydro-5H-benzo[6,7]cyclohepta[1,2-c]pyridazin-3-yl)-N^3-(4-(4-(piperidin-1-yl)piperidin-1-ylprop-1-enyl)phenyl)-1H-1,2,4-triazole-3,5-diamine]	5.00 to 6.00
Nc1nc(Nc2ccc(C=CCN3CCCCC3)cc2)nn1-c1cc2c(nn1)-c1ccccc1CCC2 [Compound 198, 1-(6,7-dihydro-5H-benzo[6,7]cyclohepta[1,2-c]pyridazin-3-yl)-N^3-(4-(piperidin-1-ylprop-1-enyl)phenyl)-1H-1,2,4-triazole-3,5-diamine]	> 6.00
Nc1nc(Nc2ccc(C=CCN3CCCC3)cc2)nn1-c1cc2c(nn1)-c1ccccc1CCC2 [Compound 199, 1-(6,7-dihydro-5H-benzo[6,7]cyclohepta[1,2-c]pyridazin-3-yl)-N^3-(4-(pyrrolidin-1-ylprop-1-enyl)phenyl)-1H-1,2,4-triazole-3,5-diamine]	> 6.00
CN(C)C1CCN(CC=Cc2ccc(Nc3nc(N)n(-c4cc5c(nn4)-c4ccccc4CCC5)n3)cc2)C1 (centres unmarked) [Compound 200, 1-(6,7-dihydro-5H-benzo[6,7]cyclohepta[1,2-c]pyridazin-3-yl)-N^3-(4-(3-dimethylaminopyrrolidin-1-ylprop-1-enyl)phenyl)-1H-1,2,4-triazole-3,5-diamine]	> 6.00
CCN(CC)C1CCN(CC=Cc2ccc(Nc3nc(N)n(-c4cc5c(nn4)-c4ccccc4CCC5)n3)cc2)C1 (centres unmarked) [Compound 201, 1-(6,7-dihydro-5H-benzo[6,7]cyclohepta[1,2-c]pyridazin-3-yl)-N^3-(4-(3-diethylaminopyrrolidin-1-ylprop-1-enyl)phenyl)-1H-1,2,4-triazole-3,5-diamine]	> 6.00
C[C@H]1CN(c2ccc(Nc3nc(N)n(-c4cc5c(nn4)-c4ccccc4CCC5)n3)cn2)CCN1CC1CC1 [Compound 202, 1-(6,7-dihydro-5H-benzo[6,7]cyclohepta[1,2-c]pyridazin-3-yl)-N^3-(2-(3-(S)-methyl-4-cyclopropylmethylpiperazin-1-yl)pyridine-5-yl)-1H-1,2,4-triazole-3,5-diamine]	> 6.00
Nc1nc(Nc2ccc(C=CCN3CCC(N4CCCC4)CC3)cc2)nn1-c1cc2c(nn1)-c1ccccc1CCC2 [Compound 203, 1-(6,7-dihydro-5H-benzo[6,7]cyclohepta[1,2-c]pyridazin-3-yl)-N^3-(4-(4-pyrrolidin-1-ylpiperidin-1-ylprop-1-enyl)phenyl)-1H-1,2,4-triazole-3,5-diamine]	> 6.00
CN1CCN(CC=Cc2ccc(Nc3nc(N)n(-c4cc5c(nn4)-c4ccccc4CCC5)n3)cc2)CC1 [Compound 204, 1-(6,7-dihydro-5H-benzo[6,7]cyclohepta[1,2-c]pyridazin-3-yl)-N^3-(4-(4-methylpiperazin-1-ylprop-1-enyl)phenyl)-1H-1,2,4-triazole-3,5-diamine]	> 6.00
CC(C)N1CCN(CC=Cc2ccc(Nc3nc(N)n(-c4cc5c(nn4)-c4ccccc4CCC5)n3)cc2)CC1 [Compound 205, 1-(6,7-dihydro-5H-benzo[6,7]cyclohepta[1,2-c]pyridazin-3-yl)-N^3-(4-(4-isopropylpiperazin-1-ylprop-1-enyl)phenyl)-1H-1,2,4-triazole-3,5-diamine]	> 6.00
Nc1nc(Nc2ccc(C=CCN3CCN(C4CCCC4)CC3)cc2)nn1-c1cc2c(nn1)-c1ccccc1CCC2 [Compound 206, 1-(6,7-dihydro-5H-benzo[6,7]cyclohepta[1,2-c]pyridazin-3-yl)-N^3-(4-(4-cyclopentylpiperazin-1-ylprop-1-enyl)phenyl)-1H-1,2,4-triazole-3,5-diamine]	> 6.00
Nc1nc(Nc2ccc(C=CCN3CCOCC3)cc2)nn1-c1cc2c(nn1)-c1ccccc1CCC2 [Compound 207, 1-(6,7-dihydro-5H-benzo[6,7]cyclohepta[1,2-c]pyridazin-3-yl)-N^3-(4-(morpholin-4-ylprop-1-enyl)phenyl)-1H-1,2,4-triazole-3,5-diamine]	> 6.00
CCN(CC)CCC1CCCc2ccc(Nc3nc(N)n(-c4cc5c(nn4)-c4ccccc4CCC5)n3)cc2C1O (centres unmarked) [Compound 208, 1-(6,7-dihydro-5H-benzo[6,7]cyclohepta[1,2-c]pyridazin-3-yl)-N^3-(8-diethylaminoethyl-9-hydroxy-6,7,8,9-tetrahydro-5H-benzo[7]annulene-2-yl)-1H-1,2,4-triazole-3,5-diamine]	5.00 to 6.00
CN1CCN(c2ccc(Nc3nc(N)n(-c4cc5c(nn4)-c4ccccc4CCC5)n3)cc2F)CC1 [Compound 209, 1-(6,7-dihydro-5H-benzo[6,7]cyclohepta[1,2-c]pyridazin-3-yl)-N^3-(3-fluoro-4-(4-methylpiperazin-1-yl)phenyl)-1H-1,2,4-triazole-3,5-diamine]	> 6.00
CN1CCCC(Oc2ccc(Nc3nc(N)n(-c4cc5c(nn4)-c4ccccc4CCC5)n3)cc2)C1 (centres unmarked) [Compound 210, 1-(6,7-dihydro-5H-benzo[6,7]cyclohepta[1,2-c]pyridazin-3-yl)-N^3-(4-(1-methylpiperidin-3-yl-oxy)phenyl)-1H-1,2,4-triazole-3,5-diamine]	> 6.00
Nc1nc(Nc2ccc(C3CCN(C4CC5CCC4C5)CC3)cc2)nn1-c1cc2c(nn1)-c1ccccc1CCC2 (centres unmarked) [Compound 211, 1-(6,7-dihydro-5H-benzo[6,7]cyclohepta[1,2-c]pyridazin-3-yl)-N^3-(4-(1-bicyclo[2.2.1]heptan-2-yl)-piperidin-4-ylphenyl)-1H-1,2,4-triazole-3,5-diamine]	< 4.70
Nc1nc(Nc2ccc(C3CCN(CC4CC4)CC3)cc2)nn1-c1cc2c(nn1)-c1ccccc1CCC2 [Compound 212, 1-(6,7-dihydro-5H-benzo[6,7]cyclohepta[1,2-c]pyridazin-3-yl)-N^3-(4-(1-cyclopropylmethylpiperidin-4-yl)phenyl)-1H-1,2,4-triazole-3,5-diamine]	> 6.00
Nc1nc(Nc2ccc3c(c2)CNCC3)nn1-c1cc2c(nn1)-c1ccccc1CCC2 [Compound 213, 1-(6,7-dihydro-5H-benzo[6,7]cyclohepta[1,2-c]pyridazin-3-yl)-N^3-(1,2,3,4-tetrahydroisoquinolin-7-yl)-1H-1,2,4-triazole-3,5-diamine]	> 6.00
